Test results published in patent US7880010B2, “Crystalline forms of a dimethylphenyl compound” (Theravance, Inc., priority 2006, dated 2011).

Legend:
bronchoconstriction = experiment: Einthoven assay, duration of bronchoprotection; conditions: guinea pigs, 10 μg/mL
Method: The magnitude of bronchoprotection at different time-points after inhalation of the test compound was used to estimate the pharmacodynamic half-life (PD T1/2). PD T1/2 was determined using a non-linear regression fit using a one-phase exponential decay equation (GraphPad Prism, Version 4.00): Y=Span*exp(−K*X)+Plateau; Starts at Span+Plateau and decays to Plateau with a rate constant K. The PD T1/2=0.69/K. Plateau was constrained to 0.

[1] = Differential scanning calorimetry, thermal stability; assay type: physicochemical; conditions: DSC, FIG. 5
Method: Differential scanning calorimetry (DSC) was performed using a TA Instruments Model Q-100 module with a Thermal Analyst controller. Data were collected and analyzed using TA Instruments Thermal Solutions software. A sample of about 1 mg was accurately weighed into an aluminum pan with lid. The sample was evaluated using a linear heating ramp of 5° C./min from ambient temperature to approximately 300° C. The DSC cell was purged with dry nitrogen during use. Representative DSC traces for samples of Form I, Form II and Form III of crystalline biphenyl-2-ylcarbamic acid 1-[2-(4-{[(R)-2-(3-formylamino-4-hydroxyphenyl)-2-hydroxyethylamino]methyl}-2,5-dimethylphenylcarbamoyl)ethyl]piperidin-4-yl ester are shown in FIGS. 4, 5 and 6, respectively.

[2] = Dynamic moisture sorption (DMS) assessment; assay type: physicochemical
Method: A dynamic moisture sorption (DMS) assessment (also known as a moisture sorption-desorption profile) was performed for a hand ground samples of Form I, Form II and Form III of crystalline biphenyl-2-ylcarbamic acid 1-[2-(4-{[(R)-2-(3-formylamino-4-hydroxyphenyl)-2-hydroxyethylamino]methyl}-2,5-dimethylphenylcarbamoyl)-ethyl]piperidin-4-yl ester using a VTI atmospheric microbalance, SGA-100 system (VTI Corp., Hialeah, Fla. 33016). A sample size of approximately 10 mg was used and the humidity was set at the ambient value at the start of the analysis. A typical DMS analysis consisted of three scans: ambient to 2% relative humidity (RH), 2% RH to 90% RH, 90% RH to 5% RH at a scan rate of 5% RH/step. The mass was measured every two minutes and the RH was changed to the next value (±5% RH) when the mass of the sample was stable to within 0.01% for 5 consecutive points. Representative DMS traces for Form I, Form II and Form III are shown in FIGS. 10, 11 and 12, respectively.

SMILES: C[N+]1(C)[C@@H]2C[C@@H](OC(=O)C(O)(c3cccs3)c3cccs3)C[C@H]1[C@@H]1O[C@@H]12 [tiotropium]
- duration of significant bronchoprotection (bronchoconstriction): greater than 72 hours

SMILES: Cc1cc(NC(=O)CCN2CCC(OC(=O)Nc3ccccc3-c3ccccc3)CC2)c(C)cc1CNC[C@H](O)c1ccc(O)c(NC=O)c1 [Form II, Biphenyl-2-ylcarbamic acid 1-[2-(4-{[(R)-2-(3-Formylamino-4-hydroxyphenyl)-2-hydroxyethylamino]methyl}-2,5-dimethylphenylcarbamoyl)ethyl]piperidin-4-yl Ester]
- thermal stability [1]: excellent thermal stability
- hygroscopicity ([2]; DMS, 2% RH to 90% RH, reversible sorption/desorption profile): < 5%
- weight gain ([2]; humidity range of 40% RH to 75% RH, DMS trace FIG. 11): about 0.3 weight %
- weight gain ([2]; humidity range of 40% relative humidity to 75% relative humidity): less than 0.5%
- deliquescence ([2]; moisture sorption/desorption, exposure to atmospheric moisture): not deliquescent
